Measurements: ChEMBL document CHEMBL5523723, “G Protein-Coupled Estrogen Receptor-Mediated Anti-Inflammatory and Mucosal Healing Activity of a Trimethylpyridinol Analogue in Inflammatory Bowel Disease” (J Med Chem, 2024)
Active and inactive are the calls of the source. The calls are words filed in the database; no cut-off is given here.

Assays:
U-937 [1] = test: Inhibition of TNFalpha induced adhesion of TPA treated human U-937 cells to human HT-29 cells at 1 uM pretreated with HT-29 for 1 hr followed by U-937 addition along with TNFalpha stimulation for 3 hrs by fluorescence based microplate reader assay relative to control; format: functional; conditions: time 4 hrs
[2] = Inhibition of IL6 induced adhesion of TPA treated human U-937 cells to human HT-29 cells at 1 uM pretreated with HT-29 for 1 hr followed by U-937 addition along with IL6 stimulation for 3 hrs by fluorescence based microplate reader assay relative to control; format: functional; conditions: time 4 hrs
HT-29 [3] = test: (§1) Mucosal healing effect in TNFalpha induced human HT-29 cells assessed as decrease in epithelial permeability by measuring reduced […] FITC-dextran 4 level at 0.1 to 10 uM pretreated for 3 hrs followed by TNFalpha addition and subsequent FD4 addition and measured after 2 hrs by fluorescence based assay; format: functional, cell-based; conditions: dose 0.1-10 µM, time 5.0 hrs
HT-29 [4] = test: as §1, with “at” for “at 0.1 to”, “pretreated with compound and G15” for “pretreated”; format: functional, cell-based; conditions: time 5.0 hrs
HT-29 [5] = test: Induction of apoptosis in human HT-29 cells assessed as viable cells at 1 uM incubated for 24 hrs by Annexin V FITC/PI staining based flow cytometry analysis ( Rvb = 99 +/- 0.1%); format: functional; conditions: read-out: Activity
HT-29 [6] = test: Induction of apoptosis in human HT-29 cells assessed as early apoptotic cells at 1 uM incubated for 24 hrs by Annexin V FITC/PI staining based flow cytometry analysis ( Rvb = 0%); format: functional
HT-29 [7] = test: Induction of apoptosis in human HT-29 cells assessed as late apoptotic cells at 1 uM incubated for 24 hrs by Annexin V FITC/PI staining based flow cytometry analysis ( Rvb = 0.7%); format: functional
HT-29 [8] = test: Induction of apoptosis in human HT-29 cells assessed as necrotic cells at 1 uM incubated for 24 hrs by Annexin V FITC/PI staining based flow cytometry analysis ( Rvb = 0.2%); format: functional
HT-29 [9] = test: Induction of apoptosis in human HT-29 cells assessed as viable cells at 5 uM incubated for 24 hrs by Annexin V FITC/PI staining based flow cytometry analysis ( Rvb = 99 +/- 0.1%); format: functional; conditions: read-out: Activity
HT-29 [10] = test: Induction of apoptosis in human HT-29 cells assessed as early apoptotic cells at 5 uM incubated for 24 hrs by Annexin V FITC/PI staining based flow cytometry analysis ( Rvb = 0%); format: functional
HT-29 [11] = test: Induction of apoptosis in human HT-29 cells assessed as late apoptotic cells at 5 uM incubated for 24 hrs by Annexin V FITC/PI staining based flow cytometry analysis ( Rvb = 0.7%); format: functional
HT-29 [12] = test: Induction of apoptosis in human HT-29 cells assessed as necrotic cells at 5 uM incubated for 24 hrs by Annexin V FITC/PI staining based flow cytometry analysis ( Rvb = 0.2%); format: functional
HT-29 [13] = test: Induction of apoptosis in human HT-29 cells assessed as viable cells at 10 uM incubated for 24 hrs by Annexin V FITC/PI staining based flow cytometry analysis ( Rvb = 99 +/- 0.1%); format: functional; conditions: read-out: Activity
HT-29 [14] = test: Induction of apoptosis in human HT-29 cells assessed as early apoptotic cells at 10 uM incubated for 24 hrs by Annexin V FITC/PI staining based flow cytometry analysis ( Rvb = 0%); format: functional
HT-29 [15] = test: Induction of apoptosis in human HT-29 cells assessed as late apoptotic cells at 10 uM incubated for 24 hrs by Annexin V FITC/PI staining based flow cytometry analysis ( Rvb = 0.7%); format: functional
HT-29 [16] = test: Induction of apoptosis in human HT-29 cells assessed as necrotic cells at 10 uM incubated for 24 hrs by Annexin V FITC/PI staining based flow cytometry analysis ( Rvb = 0.2%); format: functional
U-937 [17] = test: Induction of apoptosis in human U-937 cells assessed as viable cells at 1 uM incubated for 24 hrs by Annexin V FITC/PI staining based flow cytometry analysis ( Rvb = 95.2 +/- 0.4%); format: functional; conditions: read-out: Activity
U-937 [18] = test: Induction of apoptosis in human U-937 cells assessed as early apoptotic cells at 1 uM incubated for 24 hrs by Annexin V FITC/PI staining based flow cytometry analysis ( Rvb = 0.6 +/- 0.1 %); format: functional
U-937 [19] = test: Induction of apoptosis in human U-937 cells assessed as late apoptotic cells at 1 uM incubated for 24 hrs by Annexin V FITC/PI staining based flow cytometry analysis ( Rvb = 4 +/- 0.2%); format: functional
U-937 [20] = test: Induction of apoptosis in human U-937 cells assessed as necrotic cells at 1 uM incubated for 24 hrs by Annexin V FITC/PI staining based flow cytometry analysis ( Rvb = 0.2 +/- 0.1%); format: functional
U-937 [21] = test: Induction of apoptosis in human U-937 cells assessed as viable cells at 5 uM incubated for 24 hrs by Annexin V FITC/PI staining based flow cytometry analysis ( Rvb = 95.2 +/- 0.4%); format: functional; conditions: read-out: Activity
U-937 [22] = test: Induction of apoptosis in human U-937 cells assessed as early apoptotic cells at 5 uM incubated for 24 hrs by Annexin V FITC/PI staining based flow cytometry analysis ( Rvb = 0.6 +/- 0.1 %); format: functional
U-937 [23] = test: Induction of apoptosis in human U-937 cells assessed as late apoptotic cells at 5 uM incubated for 24 hrs by Annexin V FITC/PI staining based flow cytometry analysis ( Rvb = 4 +/- 0.2%); format: functional
U-937 [24] = test: Induction of apoptosis in human U-937 cells assessed as necrotic cells at 5 uM incubated for 24 hrs by Annexin V FITC/PI staining based flow cytometry analysis ( Rvb = 0.2 +/- 0.1%); format: functional
U-937 [25] = test: Induction of apoptosis in human U-937 cells assessed as viable cells at 10 uM incubated for 24 hrs by Annexin V FITC/PI staining based flow cytometry analysis ( Rvb = 95.2 +/- 0.4%); format: functional; conditions: read-out: Activity
U-937 [26] = test: Induction of apoptosis in human U-937 cells assessed as early apoptotic cells at 10 uM incubated for 24 hrs by Annexin V FITC/PI staining based flow cytometry analysis ( Rvb = 0.6 +/- 0.1 %); format: functional
U-937 [27] = test: Induction of apoptosis in human U-937 cells assessed as late apoptotic cells at 10 uM incubated for 24 hrs by Annexin V FITC/PI staining based flow cytometry analysis ( Rvb = 4 +/- 0.2%); format: functional
U-937 [28] = test: Induction of apoptosis in human U-937 cells assessed as necrotic cells at 10 uM incubated for 24 hrs by Annexin V FITC/PI staining based flow cytometry analysis( Rvb = 0.2 +/- 0.1%); format: functional

SMILES: Cc1ccc(C(=O)Nc2nc(C)c(O)c(C)c2C)o1
- inhibition at 1 µM (U-937 [1]): 79.9%
- inhibition at 1 µM [2]: 70.2%

SMILES: COc1ccc(C(=O)Nc2nc(C)c(O)c(C)c2C)c(OC)c1
- inhibition at 1 µM (U-937 [1]): 30.9%
- inhibition at 1 µM [2]: 19.1%

SMILES: Cc1nc(NC(=O)c2ccc(C(C)(C)C)cc2)c(C)c(C)c1O
- inhibition at 1 µM [2]: 29.4%

SMILES: Cc1nc(NC(=O)c2cccs2)c(C)c(C)c1O
- inhibition at 1 µM [2]: 61.6%

SMILES: Cc1ccccc1C(=O)Nc1nc(C)c(O)c(C)c1C
- inhibition at 1 µM (U-937 [1]): 47.3%
- inhibition at 1 µM [2]: 41.5%

SMILES: Cc1ccc2c(Cl)c(C(=O)Nc3nc(C)c(O)c(C)c3C)sc2c1
- inhibition at 1 µM [2]: 8.7%

SMILES: Cc1nc(NC(=O)c2ccc3ccccc3c2)c(C)c(C)c1O
- inhibition at 1 µM (U-937 [1]): 42.9%
- inhibition at 1 µM [2]: 33.1%

SMILES: Cc1nc(NC(=O)c2ccc(F)cc2F)c(C)c(C)c1O
- inhibition at 1 µM (U-937 [1]): 71.4%
- inhibition at 1 µM [2]: 62.4%

SMILES: Cc1nc(NC(=O)c2ccc(Cl)cc2Cl)c(C)c(C)c1O
- inhibition at 1 µM (U-937 [1]): 58.6%
- inhibition at 1 µM [2]: 46.4%

SMILES: Cc1nc(NC(=O)c2sc3cc(Cl)ccc3c2Cl)c(C)c(C)c1O
- inhibition at 1 µM [2]: 9%

SMILES: Brc1cc2c(cc1[C@@H]1Nc3ccccc3[C@@H]3C=CC[C@@H]31)OCO2
- Activity (HT-29 [3]): inactive
- Activity (HT-29 [4]): inactive
- viability at 1 µM (HT-29 [5]): 86.4%
- Activity (HT-29 [6]): 1.6%
- Activity (HT-29 [7]): 10.4%
- Activity (HT-29 [8]): 1.6%
- viability at 5 µM (HT-29 [9]): 84.2%
- Activity (HT-29 [10]): 1%
- Activity (HT-29 [11]): 13.1%
- Activity (HT-29 [12]): 1.6%
- viability at 10 µM (HT-29 [13]): 79.7%
- Activity (HT-29 [14]): 2.4%
- Activity (HT-29 [15]): 17.1%
- Activity (HT-29 [16]): 0.7%
- viability at 1 µM (U-937 [17]): 79.6%
- Activity (U-937 [18]): 6.8%
- Activity (U-937 [19]): 13.1%
- Activity (U-937 [20]): 0.5%
- viability at 5 µM (U-937 [21]): 74.6%
- Activity (U-937 [22]): 6.5%
- Activity (U-937 [23]): 18.3%
- Activity (U-937 [24]): 0.7%
- viability at 10 µM (U-937 [25]): 65.7%
- Activity (U-937 [26]): 6.2%
- Activity (U-937 [27]): 27.9%
- Activity (U-937 [28]): 0.3%

SMILES: Cc1nc(NC(=O)c2ccoc2)c(C)c(C)c1O
- inhibition at 1 µM (U-937 [1]): 60.3%
- inhibition at 1 µM [2]: 54.1%

SMILES: Cc1nc(NC(=O)c2cccc(F)c2)c(C)c(C)c1O
- inhibition at 1 µM (U-937 [1]): 54.1%
- inhibition at 1 µM [2]: 44.2%

SMILES: Cc1nc(NC(=O)c2ccccc2F)c(C)c(C)c1O
- inhibition at 1 µM (U-937 [1]): 36.4%
- inhibition at 1 µM [2]: 66.4%

SMILES: Cc1nc(NC(=O)c2ccc(F)cc2)c(C)c(C)c1O
- inhibition at 1 µM [2]: 5.5%

SMILES: Cc1nc(NC(=O)c2c(-c3ccccc3)noc2C)c(C)c(C)c1O
- inhibition at 1 µM (U-937 [1]): 18.8%
- inhibition at 1 µM [2]: 37.8%
